Source: patent publication US20220117938A1, “COMBINATON THERAPY WITH A DON PRODRUG AND AN IMMUNE CHECKPOINT INHIBITOR” (DRACEN PHARMACEUTICALS, INC., priority 2019, published 2022)

Test system: CT26.WT tumors
Assay: Anti-tumor efficacy of Compound 1 by IV and SC routes in the CT26.WT model (Example 8)
Assay type: in vivo, mice
Experimental: Female BALB/c mice were inoculated subcutaneously in the right flank with CT26.WT cells for tumor development. Six days after tumor inoculation, mice with tumor sizes ranging from 32-77 mm^3 (average tumor size 56 mm^3) were selected and assigned into 6 groups using stratified randomization with 8 mice per group based upon their tumor volumes. The treatments were started from the day of randomization (defined as D0), Group 1 was treated with Vehicle control, q.d.×5 days on (Mon-Fri)×4 cycles s.c.; Group 2 was treated with Compound 1, 0.7 mpk×5 days on (Mon-Fri)×4 cycles s.c.; Group 3 was treated with Compound 1, 1.4 mpk×5 days on (Mon-Fri)×4 cycles s.c.; Group 4 was treated with Compound 1, 4.5 mpk×3-days on (Mon, Wed, Fri)×4 cycles, iv; Group 5 was treated with Compound 1, 7 mpk×2-days on (Mon,Thu)×4 cycles, iv; Group 6 was treated with Compound 1, 14 mpk×1-day on (Mon)×4 cycles, iv. The tumor sizes were measured three times per week during the treatment. The entire study was terminated on D44 after start of the treatment. All treatments were well-tolerated without any adverse effects or significant body weight loss.

[1] = Group 2, 0.7 mpk s.c. Mon-Fri x4 cycles
[2] = Group 2, 0.7 mpk s.c. Mon-Fri x4 cycles, day 16
[3] = Group 3, 1.4 mpk s.c. Mon-Fri x4 cycles
[4] = Group 3, 1.4 mpk s.c. Mon-Fri x4 cycles, day 16
[5] = Group 4, 4.5 mpk iv Mon,Wed,Fri x4 cycles
[6] = Group 4, 4.5 mpk iv Mon,Wed,Fri x4 cycles, day 16
[7] = Group 5, 7 mpk iv Mon,Thu x4 cycles
[8] = Group 5, 7 mpk iv Mon,Thu x4 cycles, day 16
[9] = Group 6, 14 mpk iv Mon x4 cycles
[10] = Group 6, 14 mpk iv Mon x4 cycles, day 16

CC(=O)N[C@@H](Cc1c[nH]c2ccccc12)C(=O)N[C@@H](CCC(=O)C=[N+]=[N-])C(=O)OC(C)C [Compound 1, Isopropyl (S)-2-((S)-2-acetamido-3-(1H-indol-3-yl)propanamido)-6-diazo-5-oxohexanoate]
ILS [1]: 86.1% | MST [1]: 33.5 days | RTV at day 16 [1]: 4.45 ± 0.74 | Tumor volume (Group 2, 0.7 mpk s.c. Mon-Fri x4 cycles, day 0): 56 ± 4 mm^3 | Tumor volume (Group 2, 0.7 mpk s.c. Mon-Fri x4 cycles, day 2): 62 ± 7 mm^3 | Tumor volume (Group 2, 0.7 mpk s.c. Mon-Fri x4 cycles, day 4): 89 ± 10 mm^3 | Tumor volume (Group 2, 0.7 mpk s.c. Mon-Fri x4 cycles, day 7): 124 ± 20 mm^3 | Tumor volume (Group 2, 0.7 mpk s.c. Mon-Fri x4 cycles, day 9): 140 ± 22 mm^3 | Tumor volume (Group 2, 0.7 mpk s.c. Mon-Fri x4 cycles, day 11): 143 ± 21 mm^3 | Tumor volume (Group 2, 0.7 mpk s.c. Mon-Fri x4 cycles, day 14): 261 ± 45 mm^3 | T/C [2]: 14.25% | TGI [2]: 87.81% | Tumor volume [2]: 259 ± 52 mm^3 | Tumor volume (Group 2, 0.7 mpk s.c. Mon-Fri x4 cycles, day 18): 308 ± 63 mm^3 | Tumor volume (Group 2, 0.7 mpk s.c. Mon-Fri x4 cycles, day 21): 407 ± 83 mm^3 | Tumor volume (Group 2, 0.7 mpk s.c. Mon-Fri x4 cycles, day 23): 522 ± 102 mm^3 | Tumor volume (Group 2, 0.7 mpk s.c. Mon-Fri x4 cycles, day 25): 648 ± 130 mm^3 | Tumor volume (Group 2, 0.7 mpk s.c. Mon-Fri x4 cycles, day 28): 1030 ± 194 mm^3 | Tumor volume (Group 2, 0.7 mpk s.c. Mon-Fri x4 cycles, day 30): 1585 ± 288 mm^3 | ILS [3]: 86.1% | MST [3]: 33.5 days | RTV at day 16 [3]: 4.94 ± 0.82 | Tumor volume (Group 3, 1.4 mpk s.c. Mon-Fri x4 cycles, day 0): 56 ± 5 mm^3 | Tumor volume (Group 3, 1.4 mpk s.c. Mon-Fri x4 cycles, day 2): 55 ± 7 mm^3 | Tumor volume (Group 3, 1.4 mpk s.c. Mon-Fri x4 cycles, day 4): 70 ± 8 mm^3 | Tumor volume (Group 3, 1.4 mpk s.c. Mon-Fri x4 cycles, day 7): 107 ± 19 mm^3 | Tumor volume (Group 3, 1.4 mpk s.c. Mon-Fri x4 cycles, day 9): 118 ± 21 mm^3 | Tumor volume (Group 3, 1.4 mpk s.c. Mon-Fri x4 cycles, day 11): 150 ± 26 mm^3 | Tumor volume (Group 3, 1.4 mpk s.c. Mon-Fri x4 cycles, day 14): 235 ± 35 mm^3 | T/C [4]: 15.82% | TGI [4]: 86.45% | Tumor volume [4]: 282 ± 52 mm^3 | Tumor volume (Group 3, 1.4 mpk s.c. Mon-Fri x4 cycles, day 18): 292 ± 49 mm^3 | Tumor volume (Group 3, 1.4 mpk s.c. Mon-Fri x4 cycles, day 21): 406 ± 85 mm^3 | Tumor volume (Group 3, 1.4 mpk s.c. Mon-Fri x4 cycles, day 23): 484 ± 103 mm^3 | Tumor volume (Group 3, 1.4 mpk s.c. Mon-Fri x4 cycles, day 25): 539 ± 119 mm^3 | Tumor volume (Group 3, 1.4 mpk s.c. Mon-Fri x4 cycles, day 28): 853 ± 163 mm^3 | Tumor volume (Group 3, 1.4 mpk s.c. Mon-Fri x4 cycles, day 30): 1372 ± 230 mm^3 | ILS [5]: 61.1% | MST [5]: 29 days | RTV at day 16 [5]: 8.92 ± 1.58 | Tumor volume (Group 4, 4.5 mpk iv Mon,Wed,Fri x4 cycles, day 0): 56 ± 3 mm^3 | Tumor volume (Group 4, 4.5 mpk iv Mon,Wed,Fri x4 cycles, day 2): 70 ± 6 mm^3 | Tumor volume (Group 4, 4.5 mpk iv Mon,Wed,Fri x4 cycles, day 4): 92 ± 11 mm^3 | Tumor volume (Group 4, 4.5 mpk iv Mon,Wed,Fri x4 cycles, day 7): 126 ± 16 mm^3 | Tumor volume (Group 4, 4.5 mpk iv Mon,Wed,Fri x4 cycles, day 9): 168 ± 24 mm^3 | Tumor volume (Group 4, 4.5 mpk iv Mon,Wed,Fri x4 cycles, day 11): 223 ± 40 mm^3 | Tumor volume (Group 4, 4.5 mpk iv Mon,Wed,Fri x4 cycles, day 14): 427 ± 73 mm^3 | T/C [6]: 28.57% | TGI [6]: 73.09% | Tumor volume [6]: 503 ± 94 mm^3 | Tumor volume (Group 4, 4.5 mpk iv Mon,Wed,Fri x4 cycles, day 18): 648 ± 148 mm^3 | Tumor volume (Group 4, 4.5 mpk iv Mon,Wed,Fri x4 cycles, day 21): 948 ± 230 mm^3 | ILS [7]: 61.1% | MST [7]: 29 days | RTV at day 16 [7]: 7.58 ± 1.97 | Tumor volume (Group 5, 7 mpk iv Mon,Thu x4 cycles, day 0): 56 ± 4 mm^3 | Tumor volume (Group 5, 7 mpk iv Mon,Thu x4 cycles, day 2): 71 ± 9 mm^3 | Tumor volume (Group 5, 7 mpk iv Mon,Thu x4 cycles, day 4): 78 ± 11 mm^3 | Tumor volume (Group 5, 7 mpk iv Mon,Thu x4 cycles, day 7): 142 ± 26 mm^3 | Tumor volume (Group 5, 7 mpk iv Mon,Thu x4 cycles, day 9): 166 ± 37 mm^3 | Tumor volume (Group 5, 7 mpk iv Mon,Thu x4 cycles, day 11): 185 ± 45 mm^3 | Tumor volume (Group 5, 7 mpk iv Mon,Thu x4 cycles, day 14): 395 ± 114 mm^3 | T/C [8]: 24.28% | TGI [8]: 76.00% | Tumor volume [8]: 455 ± 131 mm^3 | Tumor volume (Group 5, 7 mpk iv Mon,Thu x4 cycles, day 18): 518 ± 135 mm^3 | Tumor volume (Group 5, 7 mpk iv Mon,Thu x4 cycles, day 21): 878 ± 272 mm^3 | ILS [9]: 47.2% | MST [9]: 26.5 days | RTV at day 16 [9]: 7.02 ± 0.87 | Tumor volume (Group 6, 14 mpk iv Mon x4 cycles, day 0): 56 ± 5 mm^3 | Tumor volume (Group 6, 14 mpk iv Mon x4 cycles, day 2): 69 ± 7 mm^3 | Tumor volume (Group 6, 14 mpk iv Mon x4 cycles, day 4): 78 ± 5 mm^3 | Tumor volume (Group 6, 14 mpk iv Mon x4 cycles, day 7): 163 ± 24 mm^3 | Tumor volume (Group 6, 14 mpk iv Mon x4 cycles, day 9): 160 ± 22 mm^3 | Tumor volume (Group 6, 14 mpk iv Mon x4 cycles, day 11): 204 ± 29 mm^3 | Tumor volume (Group 6, 14 mpk iv Mon x4 cycles, day 14): 425 ± 72 mm^3 | T/C [10]: 22.49% | TGI [10]: 78.92% | Tumor volume [10]: 406 ± 74 mm^3 | Tumor volume (Group 6, 14 mpk iv Mon x4 cycles, day 18): 578 ± 89 mm^3 | Tumor volume (Group 6, 14 mpk iv Mon x4 cycles, day 21): 1035 ± 150 mm^3 | Tumor volume (Group 6, 14 mpk iv Mon x4 cycles, day 23): 1216 ± 177 mm^3 | Tumor volume (Group 6, 14 mpk iv Mon x4 cycles, day 25): 1684 ± 231 mm^3
